# From paper PMC6349869, “The palladacycle complex AJ-5 induces apoptotic cell death while reducing autophagic flux in rhabdomyosarcoma cells” (Cell Death Discovery, 2019)
# pIC50: −log10 of the molar value.
# Experiments:
# [1] = system: phosphorylated RIP3 and MLKL; test: Western blot of necroptosis markers (preliminary, data not shown); assay type: cell-based
# RH30 cells = test: Autophagic flux by western blotting (p62; LC3II with bafilomycin A1), RH30; assay type: cell-based, human
# Procedure: AJ-5, synthesized as previously described, was dissolved in dimethyl sulfoxide (DMSO) (D8418; Sigma Aldrich) to give a 5 mM AJ-5 stock which was stored at room temperature (RT) and used within 5 days. AJ-5 was diluted in cell culture medium to achieve the desired final concentration and a vehicle control (DMSO) of the same concentration was prepared simultaneously. Cells were treated at a confluency of 60%. For western blot experiments to determine autophagy flux, cells were treated with 200 nM bafilomycin A1 (B1793; Sigma Aldrich) for 2 h post AJ-5 treatment. Doxorubicin (z/26/0167; Teva Pharmaceutical Industries Ltd, Israel) was used as a positive control in Caspase-Glo experiments at a concentration of 0.5 µM.
# Cells were lysed at 4 °C in whole-cell lysis buffer (0.125 M Tris-HCl pH 6.8, 4% SDS, 0.2% glycerol, 0.1% β-mercaptoethanol and a pinch of bromophenol blue) and boiled for 10 min. Proteins were resolved by SDS-PAGE (6–15% gels) and transferred to Hybond ECL membranes (Amersham, UK). […] Densitometry readings were obtained using ImageJ v1.50i[58] and protein expression levels were represented as a ratio of protein of interest/p38 loading control normalized to the vehicletreated control sample where appropriate. […]
# MG-63 cells = test: MTT cell viability assay, MG-63 osteosarcoma; assay type: cell-based, human; conditions: 48 h
# SW1353 cells = test: MTT cell viability assay, SW1353 chondrosarcoma; assay type: cell-based, human; conditions: 48 h
# Procedure: RH30 human aRMS cells (kindly provided by Associate Professor Judith Davie, Southern Illinois University), AX-OH-1 human aRMS and FL-OH-1 human eRMS cells (kindly provided by Professor Stefan Bath, University of Cape Town) were cultured in Roswell Park Memorial Institute Medium (RPMI)-1640 (Sigma Aldrich, Missouri, USA). […] Cell morphology was monitored using an Olympus CKX41 inverted microscope (MSAC Ltd, UK) and imaged with an EVOS™ XL AMEX1000 Core Imaging System (Thermo Fisher Scientific, Massachusetts, USA).
# Cells were seeded in 96-well plates and treated the next day with a range of AJ-5 concentrations (0.1–1.0 μM) or vehicle ([…]) for 48 h. Cell viability was measured using the 3-(4,5-dimethylthiazol-2-yl)-2,5-diphenyl-trazolium bromide (MTT) assay (11465007001; Sigma Aldrich) according to the manufacturer’s instructions. Mean cell viability was calculated as a percentage of the mean vehicle control. At least three independent experiments in quadruplicate were performed from which the half maximal inhibitory concentration (IC50) was determined using GraphPad Prism version 6.0 (GraphPad Software, California, USA). The selectivity index (SI) was determined by dividing the IC50 of a normal cell line by the IC50 of a cancer cell line.
# [2] = system: RMS cells (RH30, AX-OH-1, RD, FL-OH-1); test: Clonogenic assay, RMS cells; assay type: cell-based, human
# Procedure: Cells were seeded in 6-well plates and treated the following day with IC50, ½ IC50, ¼ IC50 AJ-5 and vehicle. After 24 h, 800–4000 cells were seeded in 35 mm dishes in drug-free medium. Formation of colonies were monitored and after 7–21 days cells were fixed with 3:1 methanol:acetic acid and stained with 0.5% crystal violet (Sigma Aldrich) in 100% methanol. Colonies were imaged and percentage colony area was determined using ImageJ v1.50i[58] and the plugin ColonyArea[59]. Colony area was determined for each drug concentration and expressed as a percentage of vehicletreated control.
structure (smiles),measurement,setting,value
CC(C)c1cccc(C(C)C)c1[N+]1=Cc2cccc[c]2[Pd-2]1([Cl])[P+](CC[P+](c1ccccc1)(c1ccccc1)[Pd-2]1([Cl])[c]2ccccc2C=[N+]1c1c(C(C)C)cccc1C(C)C)(c1ccccc1)c1ccccc1 (centres unmarked) [AJ-5],Active (phosphorylated) MLKL,[1],increased levels
same,Phosphorylated RIP3,[1],increase
same,Autophagic flux judged by p62 levels,"RH30 cells; RH30, 0.1 µM or IC50, 24 and 48 h",appears to reduce autophagic flux
same,LC3II in the presence of bafilomycin A1,"RH30 cells; RH30, IC50 24 h then 200 nM bafilomycin A1 2 h",decreased levels of LC3II
same,pIC50,MG-63 cells,> 6.52
same,pIC50,SW1353 cells,> 6.52
same,Colony formation at IC50 concentrations,"[2]; 24 h treatment at IC50, colonies after 7–21 days",only a few or no RMS cell colonies formed
same,Ability of RMS cells to survive and proliferate (colony area),"[2]; 24 h treatment with ¼ IC50, ½ IC50 or IC50, colonies after 7–21 days",significantly inhibits the ability of RMS cells to survive and proliferate
